{
  "source": "patent US11397178B2",
  "about": "“Method of predicting progression of idiopathic pulmonary fibrosis and monitoring of therapeutic efficacy” (Cedars-Sinai Medical Center, priority 2016, dated 2022)",
  "molecules": {"B1": {"name": "CCL28: chemokine, CCR10 ligand (protein, UniProt Q9NRJ3 20-127, looked up)", "C-C motif chemokine 28": "SEAILPIASSCCTEVSHHISRRLLERVNMCRIQRADGDCDLAAVILHVKRRRICVSPHNHTVKQWMKVQAAKKNGKGNVCHRKKHHGKRNSNRAHQGKHETYGHKTPY"}},
  "key": {"[1]": {"details": "FDA approved treatment of IPF patients; cited from earlier work"}, "[2]": {"system": "CCR10+ IPF Cell-Induced Fibrosis in NSG Mice", "assay": "Humanized NSG mouse model of IPF: BIBF1120 from day 35 (Masson's trichrome, hydroxyproline, flow cytometry)", "type": "in vivo", "details": "for modulation of fibrosis in humanized NSG model of IPF: therapeutic treatment from day 35", "experimental": "IPF cells were injected intravenously into NSG mice and beginning at day 35 after injection mice were treated either with a solutol vehicle or 60 mg/kg BIBF-1120 solubilized in solutol for 5 days a week over 4 weeks. (A-C) Depicted are representative images of Masson's Trichrome staining of non-humanized (A) and humanized NSG mice that received solutol (B) or BIBF-1120 (C). (D) Depicted is the hydroxyproline in the lungs of non-humanized or humanized NSG mice that received solutol or BIBF-1120. Data are mean±s.e.m.; n=5-10/group. (E-F) Solutol- or BIBF1120-treated NSG humanized mouse lungs were analyzed by flow cytometry for human CD45, EpCAM and/or CCR10 expression. Depicted is the average number of CD45^+ CCR10^+ (E) and Lin^− CCR10^+ (F) cells in humanized NSG mice treated with solutol or BIBF1120. Data are mean±s.e.m.; n=5-10/group. p values indicated\nSix to eight-week old, female, pathogen free NOD Cg-Prkdc^SCID IL2rg^Tm1wil Szi (NSG) or NOD.Cg-Prkdc^SCID IL2rg^tm1Wil Tg(CAG-EGFP) 10sb/SzJ (NSG-GFP) were purchased from Jackson Laboratories and housed in Cedars-Sinai Medical Center's high isolation animal rooms. NSG mice were allowed a minimum of one week to acclimate in the facility and then these mice either received nothing (i.e., non-humanized) 1×10^6 IPF cells by intravenous injection (i.e. humanized). In most in vivo experiments, the IPF cells used were removed from liquid N2 storage, rapidly thawed, and washed in serum-free medium prior to injection into NSG mice. Humanized NSG mice received KB004 (i.e., anti-EphA3 mAb supplied by Kalobios; 5 mg/kg) or KB243 (i.e., appropriate IgG control supplied by Kalobios; 5 mg/kg) either from days 0 to 35 or from days 35 to 63 by intraperitoneal injection twice weekly. […] Other groups of humanized NSG mice received either vehicle (i.e., solutol) or BIBF1120 (Cayman Chemicals) by oral gavage beginning at day 35 after IPF cell injection. Vehicle or drug was administered 5 days a week until day 63 after IPF cell injection. All NSG groups were monitored daily and mice were sacrificed if there is evidence for morbidity such as weight loss of more than 20%, loss of fur, paralysis and/or lack of responsiveness when handled.\nMurine lung cellular suspensions were generated using a mouse lung dissociation kit, C-tubes, and a GentleMacs dissociator (Miltenyi Biotech). Spleens were dissociated using a sterile rubber tip of 1 ml syringe plunger and 100 μm 50 ml tube filters (BD bioscience) as follows: isolated spleens were placed in 1 ml of sterile complete medium until all the samples were collected. Sterile 50 ml conical tube filters were placed on top of sterile 50 ml conical tubes and were equilibrated by pipetting 1 ml of calcium and magnesium free DPBS (DBPS; Cellgro) through the filters. Spleens were transferred to a sterile 50 ml filter, cellular suspensions were generated using a sterile rubber tip of a syringe plunger, and splenic material was flushed with 5 ml of DPBS. Lung and splenic cell suspensions were centrifuged and resuspended in 1 ml of RBC lysis buffer (Biolegend), incubated at room temperature for 1-2 min and then equilibrated by adding 25 ml of DPBS to each tube. Cells were centrifuged and resuspended in flow cytometric wash/staining buffer (DPBS+2% FBS) in the presence of human and mouse Fc receptor blocking antibodies (Biolegend). Cells were then stained with anti-human-CD45, -EpCAM and -CCR10 antibodies for 20 min at 4° C. Unstained, isotype controls, fluorescent minus one controls and staining in non-humanized murine lung and spleen suspensions were utilized to gate out any non-specific antibody binding and background fluorescence. CCR10 antibodies were validated via the enrichment for CCR10 transcripts in magnetically sorted CCR10^+ cells versus non-sorted normal and IPF explant cells (FIG. 35). […]"}, "[3]": {"system": "normal and IPF lung fibroblasts", "assay": "Soluble collagen 1 ELISA of lung fibroblast conditioned supernatants", "type": "cell-based, human", "experimental": "Lung fibroblasts (5000/well) were plated into a 96 well plate and incubated overnight. After incubation, cells were stimulated with 20 ng/ml of IL1β or vehicle in the presence or absence of 20 μg/ml of EphA3-Fc or IgG antibodies (supplied by Kalobios) for 24 and 72 h. After stimulation, conditioned supernatants were collected and the cells were washed and fixed with 4% paraformaldehyde solution in PBS for 10 min at room temperature.\nLung fibroblast conditioned supernatants were diluted 1:5 in DPBS. Purified Collagen 1 (STEMCELL Technologies Inc), diluted in 1:5 DBPS diluted complete medium, was utilized to generate an 8-point collagen 1 standard ranging from 200-0 ng/ml. Fifty microliters of the supernatants and standards were coated onto multisorb 96 well plates (Thermo Fisher Scientific) overnight at 4° C. After coating, the plates were washed and blocked with 200 μl of 3% BSA solution in DPBS (Lonza) for 1 h at room temperature on an orbital shaker. After blocking, plates were washed and 50 μl of 200 ng/ml biotin-conjugated anti collagen-1 antibody (Abcam Ab24821) was added to each well and the plates were incubated for 2 h at room temperature on an orbital shaker. […] Data were acquired by reading the absorbance at 405 nm using a Synergy H1 microplate reader (BioTek Instruments Inc.). […]"}, "[4]": {"system": "normal and IPF lung fibroblasts", "assay": "Flow cytometry for cell surface EphA3 expression on stimulated lung fibroblasts", "type": "cell-based, human", "details": "20 ng/ml; twenty-four hours after stimulation", "experimental": "IPF surgical lung biopsy samples were obtained. IPF lung fibroblasts were generated by mechanically dissociating IPF lung biopsies or explants into sterile tissue culture plates. After mechanical dissociation, tissues were passed through a 25-ml pipette for 10 times, in DMEM (Lonza)+15% FBS (Cell Generation), 100 IU penicillin and 100 μg/ml streptomycin (Mediatech), 292 μg/ml L-Glutamine (Mediatech) and 100 μg/ml of Primocin (Invivogen) (complete medium). Cells were cultured at 37° C. and 10% CO2, medium was changed twice a week by careful removal of the liquid and retaining the minced tissues. This process was repeated for 1-2 weeks, until stromal colonies were apparent, after which fibroblast colonies were trypsinized and passaged. After 4-5 passages, fibroblast purity was confirmed using flow cytometry and/or qPCR analysis for CD45, EpCAM and CD31. Fibroblasts were then cultured in complete medium; fresh medium was added to the fibroblasts every 2-3 days and the cells were passaged when they were 70-90% confluent. […] After treatment, cells were then analyzed by flow cytometry for cell surface EphA3 expression.\nLung fibroblasts were plated and treated as described above. […] Flow cytometric data were acquired using a MACSQuant 10 (Miltenyi Biotech) flow cytometer and data were analyzed using Flowjo software V10.2 (freest& Inc.)."}, "[5]": {"system": "normal and IPF lung fibroblasts", "assay": "In cell αSMA ELISA in lung fibroblasts", "type": "cell-based, human", "details": "CCL28; data not shown", "experimental": "Lung fibroblasts (5000/well) were plated into a 96 well plate and incubated overnight. […] After stimulation, conditioned supernatants were collected and the cells were washed and fixed with 4% paraformaldehyde solution in PBS for 10 min at room temperature.\nAfter fixation, cells were washed and permeabilized with 0.5% Triton X-100 in DPBS for 10 min, washed and endogenous peroxidase activity was blocked by adding a solution of 0.3% H2O2 in DPBS to the cells and incubating the cells with the solution for 20 min at room temperature. Cells were then washed and wells were blocked with a 1% BSA solution in DPBS for 30 min at room temperature. After blocking, cells were incubated with 500 ng/ml of anti-czSMA antibodies (Clone 1A4, Abcam) overnight at 4° C. on a rocker. […] The reaction was then stopped by adding 50 μl of 2N sulfuric acid and data were acquired by reading the absorbance at […] using a Synergy H1 microplate reader (BioTek Instruments Inc.). […] Data were acquired by reading the absorbance at 595 nm using a Synergy H1 microplate reader (BioTek Instruments Inc.). Ratios were generated from αSMA/β-tubulin absorbance data and the results were normalized to vehicle. The fold change after 24 and 72 h relative to vehicle was then determined and depicted in the figures."}, "lung fibroblast": {"system": "lung fibroblast", "assay": "Lung fibroblast invasiveness (not shown)", "type": "cell-based, human", "details": "CCL28; data not shown"}, "[6]": {"details": "60 mg/kg from day 35, day 63, flow cytometry"}},
  "data": [
    {"molecule": "Cc1ccc(=O)n(-c2ccccc2)c1", "note": "[ESBRIET, Pirfenidone]", "values": [
      {"measurement": "disease progression in IPF patients", "setting": "[1]", "result": "effective at slowing down, but not halting, disease progression"}
    ]},
    {"molecule": "COC(=O)c1ccc2c(c1)NC(=O)/C2=C(\\Nc1ccc(N(C)C(=O)CN2CCN(C)CC2)cc1)c1ccccc1", "note": "[BIBF1120, Nintedanib]", "values": [
      {"measurement": "disease progression in IPF patients", "setting": "[1]", "result": "effective at slowing down, but not halting, disease progression"},
      {"measurement": "lung hydroxyproline compared with non-humanized NSG lungs", "setting": "[2]; 60 mg/kg from day 35, day 63", "result": "elevated"},
      {"measurement": "CD45+ CCR10+ cells in NSG lungs compared with vehicle-treated group", "setting": "[2]; [6]", "result": "greater"},
      {"measurement": "Lin- CCR10+ cells in NSG lungs compared with vehicle-treated group", "setting": "[2]; [6]", "result": "greater"},
      {"measurement": "lung fibrosis (Masson's trichrome staining)", "setting": "[2]; 60 mg/kg in solutol from day 35, lungs at day 63 after IPF cell injection", "result": "showed lung fibrosis"},
      {"measurement": "modulation of fibrosis in humanized NSG model of IPF", "setting": "[2]", "result": "ineffective at modulating fibrosis"},
      {"measurement": "modulation of fibrosis in humanized NSG model of IPF", "setting": "[2]; listed as nintedanib", "result": "did not therapeutically modulate fibrosis"}
    ]},
    {"molecule": "IL1β: cytokine Interleukin 1 beta used to stimulate lung fibroblasts (R&D systems) [reference compound]", "values": [
      {"measurement": "collagen 1 in normal and IPF lung fibroblasts", "setting": "[3]; IL1β 20 ng/ml, after 24 and, to a lesser extent, 72 h", "result": "induced"},
      {"measurement": "surface EphA3 on normal and IPF lung fibroblasts", "setting": "[4]", "result": "significantly unregulated"}
    ]},
    {"molecule": "B1", "values": [
      {"measurement": "collagen 1 secretion by lung fibroblasts", "setting": "[3]; CCL28, data not shown", "result": "did not consistently modulate"},
      {"measurement": "αSMA protein expression in lung fibroblasts", "setting": "[5]", "result": "did not consistently modulate"},
      {"measurement": "lung fibroblast invasiveness", "setting": "lung fibroblast", "result": "did not consistently modulate"}
    ]}
  ]
}
